Legend:
Type in all cases: cell-based
S. epidermidis = assay: Mean resistance based susceptibility test in the microchannel (bacterial growth); details: broth/Vancomycin mixture, vancomycin 4 μg/ml, t=0 to 4 hrs
Description: After the bacteria are trapped, for the Mean Resistance based Susceptibility Test 410, at 412, the baseline mean (average or time-averaged measured resistance through the channel) resistance can be measured for a predefined period of time. The baseline mean can be determined as a function (e.g., the average or time-average) of the measured resistance through the channel for two or more points in time. After the baseline mean resistance is determined, at 414, the antibiotic is added to the solution, either via one of the reservoirs 110 or directly to the microchannel 120 and, at 416, the solution containing the bacteria and the antibiotic is allowed to incubate for a predefined period of time (e.g., 1-3 hours, although shorter or longer periods can be used). After the expiration of a predefined period of time, at 418, the mean resistance is determined (e.g., as a function of the measured resistance through the channel for two or more points in time) and, at 420, the mean resistance is compared to the baseline mean resistance. […]
In the experiment shown in FIGS. 14, 15 and 16, the susceptibility of S. epidermidis to Vancomycin was tested using the mean resistance based approach shown in the flowchart in FIG. 4. As discussed above, S. epidermidis is non-motile and readily settles in the microchannel. […]

[1] = system: susceptible E. coli strain; assay: Electrical fluctuation based susceptibility test of immobilized bacteria in human urine/broth, susceptible strain; details: about 50 bacteria, urine/broth/antibiotic mixture, antibiotic concentration above MIC, FIG. 13A/13C
Description: (§1) After the bacteria are trapped, for the Electrical Fluctuation based Susceptibility Test 430, at 432, the system measures the fluctuations of the electrical signals (e.g., voltage or current) to determine a baseline RMS signal level (e.g., the RMS level determined as function of the measured signal fluctuations). Next, at 434, the antibiotic is added to the solution, either via one of the reservoirs 110 or directly to the microchannel 120. Next, at 436, the (RMS) fluctuations of the electrical signal (e.g., voltage or current) are measured again and an RMS level can be determined as a function of the measured signal fluctuations, and, at 440, the RMS level of the fluctuations of the electrical signal can be compared to the baseline RMS signal level. If the RMS level of the fluctuations of the electrical signal is greater than the baseline signal RMS level, then the bacteria can be considered resistant to the antibiotic at 442. If the RMS level of the fluctuations of the electrical signal is not greater than the baseline RMS signal level, the bacteria can be considered susceptible to attack by the antibiotic at 444.
(§2) FIGS. 13A, 13B, and 13C show the results of antibiotic susceptibility studies in human urine. In this example, two strains of E. coli are used, with one being resistant to the administered antibiotic, nalidixic acid. […]

resistant E. coli strain = assay: Electrical fluctuation based susceptibility test of immobilized bacteria in human urine/broth, resistant strain; details: about 50 bacteria, urine/broth/antibiotic mixture, antibiotic concentration above MIC, FIG. 13B/13C
Description: as §1, §2

SMILES	population size of bacteria in the antibiotic solution (S. epidermidis)	mean resistance value (change over time) (S. epidermidis; FIG. 16)	voltage fluctuations (RMS amplitude) over time after antibiotic is administered [1]	voltage fluctuations (RMS amplitude) over time after antibiotic is administered (resistant E. coli strain)
CN[C@H](CC(C)C)C(=O)N[C@H]1C(=O)N[C@@H](CC(N)=O)C(=O)N[C@H]2C(=O)N[C@H]3C(=O)N[C@H](C(=O)N[C@H](C(=O)O)c4cc(O)cc(O)c4-c4cc3ccc4O)[C@H](O)c3ccc(c(Cl)c3)Oc3cc2cc(c3O[C@@H]2O[C@H](CO)[C@@H](O)[C@H](O)[C@H]2O[C@H]2C[C@](C)(N)[C@H](O)[C@H](C)O2)Oc2ccc(cc2Cl)[C@H]1O [Vancomycin]	the population size stays the same	does not change noticeably	–	–
CCn1cc(C(=O)O)c(=O)c2ccc(C)nc21 [nalidixic acid]	–	–	decay rather quickly	do not show significant changes over time

Source: US10604784B2, “Method and device for antibiotic susceptibility testing based on fluctuations of electrical resistance in a microchannel” (TRUSTEES OF BOSTON UNIVERSITY, priority 2016, dated 2020)
